# Patent publication US20180028477A1, “TREATMENT OF CARDIAC REMODELING AND OTHER HEART CONDITIONS” (C & C BIOPHARMA, LLC, priority 2013, published 2018)
# Entries after “also recorded” stand apart in the source; their conditions may differ.
# Columns and labels:
# [1] = tested on: Neonatal Rat Ventricular Myocytes (NRVMs); experiment: Serum (FBS)-induced hypertrophy of Neonatal Rat Ventricular Myocytes in vitro; assay type: cell-based; conditions: for viability: NRVMs (not shown); for order of potency for inhibitors / growth response to Fetal Bovine Serum / serum-stimulated myocyte growth (hypertrophy): NRVMs; for order of potency for inhibitors: FBS-induced growth; for growth response to Fetal Bovine Serum / serum-stimulated myocyte growth (hypertrophy): pre-treatment with a range of doses
# Procedure: The cells were also treated with DMSO (light gray bars) or a vehicle (dark gray bars) as a negative control. The order of potency for inhibitors was DMSO<7MI<TSA<8MI. Viability was unchanged (not shown).
# Next, the ability of 7MI and 8MI to inhibit hypertrophy in vitro was tested (FIG. 2A). […] However, fetal calf serum, which contained a rich variety of growth factors, was chosen as the most robust and multifactorial stimulus for cardiomyocyte growth available, reasoning that a similarly robust and powerful inhibitor would be required to block this hypertrophy.
# [2] = Metabolic stability in human liver microsomes fortified with NADPH (Example 11); assay type: in vitro ADME; design: CLint scaled: dose or concentration left out as unconfirmed; conditions: for K (rate constant): 0.5 mg/mL human liver microsomes, 1 mM NADPH, pH 7.4, 37° C.; for Clhp (hepatic clearance) / CLint scaled / metabolic stability / clearance in the liver, in words / intrinsic clearance (Clint) rate, fold higher than 7MI / intrinsic clearance (Clint) rate, fold higher than 8MI: human liver microsomes; for CLint scaled: pH 7.4, from mono-exponential decay model, read-out: Clint (intrinsic clearance); for metabolic stability / clearance in the liver, in words: comparison of 7MI, 8MI, BML-210, TSA; for intrinsic clearance (Clint) rate, fold higher than 7MI: ratio to 7MI; for intrinsic clearance (Clint) rate, fold higher than 8MI: ratio to 8MI
# From the text: Drug clearance is a measure of the ability of the body or an organ to eliminate a drug from the blood circulation. Systemic clearance is a measure of the ability of the entire body to eliminate the drug. Organ clearance is a measure of the ability of a particular organ (hepatic or renal) to eliminate the drug. For hepatic clearance, the liver is the major organ for drug metabolism and the key organ for drug clearance. Human liver microsomes (HLM) fortified with NADPH is a standard way to measure in vitro metabolism and predict in vivo clearance. CLint (intrinsic clearance) is the link between in vitro and in vivo studies, which can be estimated based on the mono-exponential decay model: Ct=C X e^−kt.
# Human liver microsomes fortified with NADPH is a standard approach to evaluate metabolic stability mediated by CYP (cytochrome P450) enzymes in vitro. The reaction mixture (0.4 mL) contained 0.5 mg/mL human liver microsomes, 100 mM phosphate buffer (pH 7.4) and […] of test compounds. The mixture was first warmed up for 5 min in a 37° C. shaking water bath and then NADPH at a final concentration of 1 mM was added to initiate the reaction. Aliquots […] were taken at specified time points and mixed with ice-cold methanol (containing internal standard) to stop the reaction. The mixture was vortexed briefly and centrifuged for protein precipitation. An aliquot of […] supernatant was subject to LC-MS/MS analysis. The percentage of compound disappearance was used to calculate the rate of metabolism.
# [3] = tested on: HDACs; conditions: background statement; cited from earlier work
# [4] = mice, previously reported, cited from earlier work
Structure (SMILES),viability [1],order of potency for inhibitors [1],growth response to Fetal Bovine Serum / serum-stimulated myocyte growth (hypertrophy) [1],K (rate constant) [2] [min⁻¹],Clhp (hepatic clearance) [2] [mL/min/kg],CLint scaled [2] [mL/min/kg],"metabolic stability / clearance in the liver, in words [2]","intrinsic clearance (Clint) rate, fold higher than 7MI [2] [fold]","intrinsic clearance (Clint) rate, fold higher than 8MI [2] [fold]",HDAC inhibition range [3],survival at the tolerated daily dosage ([4]; 1 mg/kg),tolerated daily dosage [4] [mg/kg]
Nc1ccccc1NC(=O)CCCCCC(=O)Nc1ccc(Br)cc1 [7MI],unchanged,DMSO<7MI<TSA<8MI,sufficient to block myocyte hypertrophy; also recorded: depressed growth response,0.0027,2.45,2.78,,,,,,
"Nc1ccccc1NC(=O)CCCCCCC(=O)Nc1ccccc1 [BML-210, reference compound]",,,,0.0116,7.57,11.9,high clearance compound,4.3,2.5,,,
O=C(CCCCCN1C(=O)c2cccc3cccc(c23)C1=O)NO [Scriptaid],,,,,,,,,,low nanomolar range,,
"CC(/C=C/C(=O)NO)=C\[C@@H](C)C(=O)c1ccc(N(C)C)cc1 [TSA, Trichostatin A, reference compound]",unchanged,DMSO<7MI<TSA<8MI,depressed growth response,0.0088,6.30,9.05,metabolically cleared much faster than 7MI or 8MI,3.2,1.9,low nanomolar range,not all of the mice survived,1
